Reference: patent US4018778A, “Derivatives of 1-phenoxy-3-amino-propane-2-ol and process for their production” (Cassella Farbwerke Mainkur Aktiengesellschaft, priority 1972, dated 1977)

What was measured:
[1] = system: changes of the dp/dt max. after isoproterenol (left ventricular blood pressure); experiment: Antagonism of isoproterenol-induced change of left ventricular dp/dt max. in narcotised dogs (catheter tip manometer); format: in vivo; conditions: Canis lupus familiaris, iv, isoproterenol 0.5·10^-6 gram/kg i.v., cumulative doses of test substance
Description: Isoproterenol (0.5 ^. 10^-^6 gram/kg i.v.) was injected at intervals of 15 minutes before and after increasing doses of the test substance. The changes of the dp/dt max. after isoproterenol were determined before and after the intravenous administration of the test substance. These values were used to calculate the ED50. The doses quoted in each case are the cumulative doses of the test substance.

[2] = system: heart (inotropic intrinsic action); conditions: words, cited from earlier work
[3] = system: dp/dt (left ventricular blood pressure); experiment: Intrinsic (inotropic) action on the dp/dt; format: in vivo, dogs; conditions: number of - and + signs indicates strength of the effect

SMILES	ED50 [1]	Intrinsic action on the dp/dt [3]	further results
Cc1cccc(OCC(O)CNC(C)CC(O)c2cccnc2)c1 (stereo not drawn) [1-(3'-β-pyridyl-3'-hydroxy-1'-methyl-propylamino)-3-(m-methylphenoxy)-propan-2-ol]	0.0175 mg/kg		
CC(C)NCC(O)COc1cccc2ccccc12 (stereo not drawn) [Propranolol]	0.0561 mg/kg		inotropic intrinsic action (clinical practice) [2]: strongly negative-inotropic intrinsic action; cardiac insufficiency risk ([2]; clinical practice): capable of causing an acute cardiac insufficiency or liable to intensify an already existing cardiac insufficiency
C=CCOc1ccccc1OCC(O)CNC(C)CC(O)c1cccnc1 (stereo not drawn) [1-(3'-β-pyridyl-3'-hydroxy-1'-methyl-propylamino)-3-(o-allyloxyphenoxy)-propan-2-ol]	0.008 mg/kg		
CCOc1ccccc1OCC(O)CNC(C)CC(O)c1cccnc1 (stereo not drawn) [1-(3'-β-Pyridyl-3'-hydroxy-1'-methyl-propylamino)-3-(o-ethoxyphenoxy)-propan-2-ol]	0.0151 mg/kg	0	
CC(=O)Nc1ccc(OCC(O)CNC(C)CC(O)c2cccnc2)cc1 (stereo not drawn) [1-(3'-β-pyridyl-3'-hydroxy-1'-methyl-propylamino)-3-(p-acetamino-phenoxy)-propan-2-ol]	0.0146 mg/kg		
CCOc1ccc(OCC(O)CNC(C)CC(O)c2cccnc2)cc1 (single isomer, unassigned; (-)) [(-)-1-(3'-β-pyridyl-3'-hydroxy-1'-methyl-propylamino)-3-(p-ethoxyphenoxy)-propan-2-ol, laevo-rotatory]		0	
CC(CC(O)c1cccnc1)NCC(O)COc1ccc(Cl)cc1 (stereo not drawn) [1-(3'-β-pyridyl-3'-hydroxy-1'-methyl-propylamino)-3-(p-chlorophenoxy)-propan-2-ol]	0.03 mg/kg		
CCOc1ccccc1OCC(O)CNC(C)CC(O)c1cccnc1 (single isomer, unassigned; (-)) [(-)-1-β-Pyridyl-3-[3-(o-ethoxyphenoxy)-2-hydroxy-propylamino]-butan-1-ol (laevo-rotatory)]	0.0026 mg/kg		
CC(CC(O)c1cccnc1)NCC(O)COc1ccccc1Cl (stereo not drawn) [1-(3'-β-pyridyl-3'-hydroxy-1'-methyl-propylamino)-3-(o-chlorophenoxy)-propan-2-ol]	0.0082 mg/kg	0	
COc1cccc(OCC(O)CNC(C)CC(O)c2cccnc2)c1 (stereo not drawn) [1-(3'-β-pyridyl-3'-hydroxy-1'-methyl-propylamino)-3-(m-methoxyphenoxy)-propan-2-ol]	0.012 mg/kg		
CC(CC(O)c1cccnc1)NCC(O)COc1ccccc1-c1ccccc1 (stereo not drawn) [1-(3'-β-Pyridyl-3'-hydroxy-1'-methyl-propylamino)-3-(o-phenylphenoxy)-propan-2-ol]		0	
C=CCc1ccccc1OCC(O)CNC(C)CC(O)c1cccnc1 (stereo not drawn) [1-(3'-β-pyridyl-3'-hydroxy-1'-methyl-propylamino)-3-(o-allylphenoxy)-propan-2-ol]	0.0178 mg/kg		
COc1ccccc1OCC(O)CNC(C)CC(O)c1cccnc1 (stereo not drawn) [1-(3'-β-pyridyl-3'-hydroxy-1'-methyl-propylamino)-3-(o-methoxyphenoxy)-propan-2-ol]	0.006 mg/kg		
CCCOc1ccc(OCC(O)CNC(C)CC(O)c2cccnc2)cc1 (stereo not drawn) [1-(3'-β-pyridyl-3'-hydroxy-1'-methyl-propylamino)-3-(p-propoxyphenoxy)-propan-2-ol]	0.0167 mg/kg		
CCCCCOc1ccc(OCC(O)CNC(C)CC(O)c2cccnc2)cc1 (stereo not drawn) [1-(3'-β-pyridyl-3'-hydroxy-1'-methyl-propylamino)-3-(p-pentoxyphenoxy)-propan-2-ol]	0.0184 mg/kg	0	
CCOc1ccc(OCC(O)CNC(C)CC(O)c2cccnc2)cc1 (stereo not drawn) [1-(3'-β-pyridyl-3'-hydroxy-1'-methyl-propylamino)-3-(p-ethoxyphenoxy)-propan-2-ol]	0.0448 mg/kg		
